Reference: patent publication US9115127B2 (AMGEN INC., priority 2010, dated 2015)

What follows are compounds tested against T1, wild-type human ALK (cytoplasmic domain, amino acids 1058-1620, N-terminal GST fusion) (Homo sapiens, UniProt Q9UM73) (assay: ALK Inhibition in Enzyme Assay (Lance TR-FRET kinase assay)).
T1 construct: The cytoplasmic domain (amino acids 1058-1620) of wild-type human ALK; GST (N); made in house; host or cells: SF9 insect cells
Format: biochemical
Method: ALK Inhibition in Enzyme Assay
Kinase activity of the purified protein was assessed using a Lance® TR-FRET assay. […] The reaction was allowed to proceed for 90 minutes at room temperature and was then terminated with 20 mM EDTA in 50 mM Tris (pH 7.5), 100 mM NaCl, 0.05% BSA, and 0.1% Tween-20. Phosphorylation of the peptide substrate was detected using the Lance® detection reagents streptavidin-allophycocyanin (SA-APC) and Eu-W1024 anti-phosphotyrosine antibody (PT66) from Perkin Elmer Life Sciences (Waltham, Mass.). The plates were read on a RUBY star plate reader (BMG LABTECH, Cary, N.C.) with an excitation wavelength of 320 nm.

T1 sequence (Q9UM73 1058-1620): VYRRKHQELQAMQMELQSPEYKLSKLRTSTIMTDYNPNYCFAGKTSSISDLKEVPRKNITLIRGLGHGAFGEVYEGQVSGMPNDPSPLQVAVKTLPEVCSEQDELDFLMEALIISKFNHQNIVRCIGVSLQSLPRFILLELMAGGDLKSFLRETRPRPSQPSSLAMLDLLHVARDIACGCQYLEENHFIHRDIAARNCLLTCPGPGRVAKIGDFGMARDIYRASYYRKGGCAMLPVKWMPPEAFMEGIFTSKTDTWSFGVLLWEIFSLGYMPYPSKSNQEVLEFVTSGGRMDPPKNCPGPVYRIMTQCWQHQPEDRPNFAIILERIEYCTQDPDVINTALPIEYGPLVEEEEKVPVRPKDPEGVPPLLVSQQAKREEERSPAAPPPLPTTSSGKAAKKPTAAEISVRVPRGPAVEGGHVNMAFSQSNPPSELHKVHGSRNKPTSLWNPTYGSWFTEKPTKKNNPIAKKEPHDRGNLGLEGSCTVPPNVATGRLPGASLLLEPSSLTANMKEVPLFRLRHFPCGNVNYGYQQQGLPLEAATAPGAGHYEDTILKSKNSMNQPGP

| IC50 | Structure (SMILES) |
| --- | --- |
| 100 to 1000 nM | CN1CCN(C(=O)[C@H]2CC[C@@H](n3/c(=N/C(=O)c4ccc(F)cc4)[nH]c4ccc(CN5CCOCC5)cc43)CC2)CC1 [Example 203, (E)-4-Fluoro-N-(1-(cis-4-(4-methylpiperazine-1-carbonyl)cyclohexyl)-6-(morpholinomethyl)-1H-benzo[d]imidazol-2(3H)-ylidene)benzamide] |
| < 50 nM | CC(C)NC(=O)[C@H]1CC[C@@H](n2/c(=N/C(=O)c3ccc(F)cc3)[nH]c3ccc(CO)cc32)CC1 [Example 170, (E)-4-Fluoro-N-(6-(hydroxymethyl)-1-(cis-4-(isopropylcarbamoyl)cyclohexyl)-1H-benzo[d]imidazol-2(3H)-ylidene)benzamide] |
| 5000 to 10000 nM | CC(C)CN1CCC(n2/c(=N/C(=O)c3ccccc3)[nH]c3cnc(OCCN4CCCCC4)cc32)CC1 [Example 68, (E)-N-(1-(1-Isobutylpiperidin-4-yl)-6-(2-(piperidin-1-yl)ethoxy)-1H-imidazo[4,5-c]pyridin-2(3H)-ylidene)benzamide] |
| < 50 nM | COC(=O)[C@H]1CC[C@@H](n2/c(=N/C(=O)c3ccc(F)cc3)[nH]c3cnc(OCCN4CCCCC4)cc32)CC1 [Example 44, cis-Methyl 4-((E)-2-(4-fluorobenzoylimino)-6-(2-(piperidin-1-yl)ethoxy)-2,3-dihydro-1H-imidazo[4,5-c]pyridin-1-yl)cyclohexanecarboxylate] |
| < 50 nM | CC(C)NC(=O)[C@H]1CC[C@@H](n2/c(=N/C(=O)c3ccc(F)cc3)[nH]c3ccc(CN4CCC(F)(F)C4)cc32)CC1 [Example 196, (E)-N-(6-((3,3-Difluoropyrrolidin-1-yl)methyl)-1-(cis-4-(isopropylcarbamoyl)cyclohexyl)-1H-benzo[d]imidazol-2(3H)-ylidene)-4-fluorobenzamide] |
| < 50 nM | CC(C)NC(=O)[C@H]1CC[C@@H](n2/c(=N/C(=O)c3ccc(F)cc3)[nH]c3cnc(S(C)(=O)=O)cc32)CC1 [Example 236, (E)-4-Fluoro-N-(1-(cis-4-(isopropylcarbamoyl)cyclohexyl)-6-(methylsulfonyl)-1H-imidazo[4,5-c]pyridin-2(3H)-ylidene)benzamide] |
| < 50 nM | CC(C)NC(=O)[C@H]1CC[C@@H](n2/c(=N/C(=O)c3ccc(F)cc3)[nH]c3ccc(-n4cncn4)cc32)CC1 [Example 221, (E)-4-Fluoro-N-(1-(cis-4-(isopropylcarbamoyl)cyclohexyl)-6-(1H-1,2,4-triazol-1-yl)-1H-benzo[d]imidazol-2(3H)-ylidene)benzamide] |
| < 50 nM | COC(=O)[C@H]1CC[C@@H](n2/c(=N/C(=O)c3ccc(F)cc3)[nH]c3ccc(CN4CCC(C(C)(C)O)CC4)cc32)CC1 [Example 209, cis-Methyl 4-((E)-2-(4-fluorobenzoylimino)-6-((4-(2-hydroxypropan-2-yl)piperidin-1-yl)methyl)-2,3-dihydro-1H-benzo[d]imidazol-1-yl)cyclohexanecarboxylate] |
| < 50 nM | CC(C)NC(C)[C@H]1CC[C@@H](n2/c(=N/C(=O)c3cccc(F)c3)[nH]c3ccc(CN4CCC(C(C)(C)O)CC4)cc32)CC1 (stereo partly drawn) [Example 72, (E)-3-Fluoro-N-(6-((4-(2-hydroxypropan-2-yl)piperidin-1-yl)methyl)-1-(cis-4-(1-(isopropylamino)ethyl)cyclohexyl)-1H-benzo[d]imidazol-2(3H)-ylidene)benzamide] |
| < 50 nM | O=C(/N=c1\[nH]c2ccc(CN3CCCCC3)cc2n1[C@H]1CC[C@@H](C(=O)N2CCNCC2)CC1)c1ccc(F)cc1 [Example 47, (E)-4-Fluoro-N-(1-(cis-4-(piperazine-1-carbonyl)cyclohexyl)-6-(piperidin-1-ylmethyl)-1H-benzo[d]imidazol-2(3H)-ylidene)benzamide] |
| 1000 to 5000 nM | CC(C)NC(=O)[C@H]1CC[C@@H](n2c(N)nc3ccc(CN4CCC(C(C)(C)O)CC4)cc32)CC1 [Example 136, cis-4-(2-Amino-6-((4-(2-hydroxypropan-2-yl)piperidin-1-yl)methyl)-1H-benzo[d]imidazol-1-yl)-N-isopropylcyclohexanecarboxamide] |
| < 50 nM | C[C@H]1CN(C(=O)[C@H]2CC[C@@H](n3/c(=N/C(=O)c4ccc(F)cc4)[nH]c4cnc(OCCN5CCCCC5)cc43)CC2)CCN1 [Example 61, (E)-4-Fluoro-N-(1-(cis-4-((S)-3-methylpiperazine-1-carbonyl)cyclohexyl)-6-(2-(piperidin-1-yl)ethoxy)-1H-imidazo[4,5-c]pyridin-2(3H)-ylidene)benzamide] |
| < 50 nM | CC(C)NC(=O)[C@H]1CC[C@@H](n2/c(=N/C(=O)c3cc(F)cc(C#N)c3)[nH]c3cnc(OCCN4CCCCC4)cc32)CC1 [Example 111, (E)-3-Cyano-5-fluoro-N-(1-(cis-4-(isopropylcarbamoyl)cyclohexyl)-6-(2-(piperidin-1-yl)ethoxy)-1H-imidazo[4,5-c]pyridin-2(3H)-ylidene)benzamide] |

More lines, now with the values behind:

| Structure (SMILES) | IC50 |
| --- | --- |
| COCc1ccc2[nH]/c(=N\C(=O)c3ccc(F)cc3)n([C@H]3CC[C@@H](C(=O)NC(C)C)CC3)c2c1 [Example 192, (E)-4-Fluoro-N-(1-(cis-4-(isopropylcarbamoyl)cyclohexyl)-6-(methoxymethyl)-1H-benzo[d]imidazol-2(3H)-ylidene)benzamide] | < 50 nM |
| CC(C)NC(=O)[C@]1(O)CC[C@H](n2/c(=N/C(=O)c3ccc(F)cc3)[nH]c3cnc(OCCN4CCCCC4)cc32)CC1 [Example 63, (E)-4-Fluoro-N-(1-(trans-4-hydroxy-4-(isopropylcarbamoyl)cyclohexyl)-6-(2-(piperidin-1-yl)ethoxy)-1H-imidazo[4,5-c]pyridin-2(3H)-ylidene)benzamide] | 50 to 100 nM |
| CC(C)(O)C1CCN(Cc2ccc3[nH]/c(=N\C(=O)c4ccc(F)cc4)n([C@H]4CC[C@@H](C(=O)N5CCNCC5)CC4)c3c2)CC1 [Example 211, (E)-4-Fluoro-N-(6-((4-(2-hydroxypropan-2-yl)piperidin-1-yl)methyl)-1-(cis-4-(piperazine-1-carbonyl)cyclohexyl)-1H-benzo[d]imidazol-2(3H)-ylidene)benzamide] | < 50 nM |
| CC(C)(CO)NC(=O)[C@H]1CC[C@@H](n2/c(=N/C(=O)c3ccc(F)cc3)[nH]c3ccc(CN4CCOCC4)cc32)CC1 [Example 199, (E)-4-Fluoro-N-(1-(cis-4-(1-hydroxy-2-methylpropan-2-ylcarbamoyl)cyclohexyl)-6-(morpholinomethyl)-1H-benzo[d]imidazol-2(3H)-ylidene)benzamide] | < 50 nM |
| CCS(=O)(=O)N1CCC(n2/c(=N/C(=O)c3ccccc3)[nH]c3cnc(OCCN4CCCCC4)cc32)CC1 [Example 66, (E)-N-(1-(1-(Ethylsulfonyl)piperidin-4-yl)-6-(2-(piperidin-1-yl)ethoxy)-1H-imidazo[4,5-c]pyridin-2(3H)-ylidene)benzamide] | 100 to 1000 nM |
| CC(C)(O)C1CCN(CCOc2cc3c(cn2)[nH]/c(=N\C(=O)c2cccc(F)c2)n3[C@H]2CC[C@@H](C(=O)N3CC(O)C3)CC2)CC1 [Example 81, (E)-3-Fluoro-N-(1-(cis-4-(3-hydroxyazetidine-1-carbonyl)cyclohexyl)-6-(2-(4-(2-hydroxypropan-2-yl)piperidin-1-yl)ethoxy)-1H-imidazo[4,5-c]pyridin-2(3H)-ylidene)benzamide] | 100 to 1000 nM |
| N#C[C@]1(c2cccc(Br)c2)C[C@@H](n2/c(=N/C(=O)c3ccc(F)cc3)[nH]c3cnc(OCCN4CCCCC4)cc32)C1 [Example 250, (E)-N-(1-(trans-3-(3-Bromophenyl)-3-cyanocyclobutyl)-6-(2-(piperidin-1-yl)ethoxy)-1H-imidazo[4,5-c]pyridin-2(3H)-ylidene)-4-fluorobenzamide] | 100 to 1000 nM |
| O=C(/N=c1\[nH]c2ccc(CN3CCCCC3)cc2n1C12CC3CC(CC(C3)C1)C2)c1ccccc1 [Example 16] | 50 to 100 nM |
| CC(C)NC(=O)[C@H]1CC[C@@H](n2/c(=N/C(=O)NC3CCCCC3)[nH]c3cnc(OCCN4CCCCC4)cc32)CC1 [Example 132, cis-4-((E)-2-(Cyclohexylcarbamoylimino)-6-(2-(piperidin-1-yl)ethoxy)-2,3-dihydro-1H-imidazo[4,5-c]pyridin-1-yl)-N-isopropylcyclohexanecarboxamide] | 100 to 1000 nM |
| Cc1n[nH]c([C@H]2CC[C@@H](n3/c(=N/C(=O)c4cccc(F)c4)[nH]c4ccc(CN5CCC(C(C)(C)O)CC5)cc43)CC2)n1 [Example 74, (E)-3-Fluoro-N-(6-((4-(2-hydroxypropan-2-yl)piperidin-1-yl)methyl)-1-(cis-4-(3-methyl-1H-1,2,4-triazol-5-yl)cyclohexyl)-1H-benzo[d]imidazol-2(3H)-ylidene)benzamide] | < 50 nM |
| CC(C)NC(=O)[C@H]1CC[C@@H](n2/c(=N/C(=O)c3cncs3)[nH]c3cnc(OCCN4CCCCC4)cc32)CC1 [Example 88, (E)-N-(1-(cis-4-(Isopropylcarbamoyl)cyclohexyl)-6-(2-(piperidin-1-yl)ethoxy)-1H-imidazo[4,5-c]pyridin-2(3H)-ylidene)thiazole-5-carboxamide] | 50 to 100 nM |
| CC(C)(O)C1CCN(CCOc2cc3c(cn2)[nH]/c(=N\C(=O)c2cccc(F)c2)n3[C@H]2CC[C@@H](C(=O)N3C[C@@H]4C[C@H]3CN4)CC2)CC1 (relative stereo) [Example 84, (E)-N-(1-(cis-4-(cis-2,5-Diazabicyclo[2.2.1]heptane-2-carbonyl)cyclohexyl)-6-(2-(4-(2-hydroxypropan-2-yl)piperidin-1-yl)ethoxy)-1H-imidazo[4,5-c]pyridin-2(3H)-ylidene)-3-fluorobenzamide] | 100 to 1000 nM |
| CC(C)NC(=O)[C@H]1CC[C@@H](n2/c(=N/C(=O)c3ccc(F)cc3)[nH]c3ccc(Cn4cnnc4)cc32)CC1 [Example 195, (E)-N-(6-((4H-1,2,4-Triazol-4-yl)methyl)-1-(cis-4-(isopropylcarbamoyl)cyclohexyl)-1H-benzo[d]imidazol-2(3H)-ylidene)-4-fluorobenzamide] | < 50 nM |
